Key:
metabolic syndrome = assay: FS index / neural net model of cardiovascular risk in metabolic syndrome patient populations; type: in vivo, human
Description: The FS index of MS comprises the following parameters: Fasting Blood Glucose, Fasting Insulin, HBA1c, BMI, AST, Triglycerides, Glucose Supply-Demand (S/D) index, and in certain cases, Proinsulin. Each parameter was mathematically arranged to increase as MS worsened, and weighted approximately equally in the prediction of MS progression and risk for CV events. […] FS index values were calculated from serial laboratory and clinical data over timeframes ranging between 2 and 10 years.
Neural Net Models and Data Display Methods. […] Unless otherwise stated, standard deviations (z-score) vs. time are presented in the individual and mean population graphics.
For purposes of analysis, clinical and laboratory parameters were converted into modified z-scores as follows: • A mean normal value (described as “mean” in the following) was selected based on review of literature and various published laboratory compendia. The Standard Deviation (SD) of each parameter was set to one half of the normal range. The modified z-score is calculated as follows: z=(Patient value−“mean”)/SD • On the graphs, the z-score is reported as the number of SD.
The FS index considered the following: Fasting Blood Glucose, Fasting Insulin, HBA1c, BMI, AST, Triglycerides, Glucose Supply-Demand (S/D) index, and in some cases Proinsulin. […] Each of these parameters was mathematically arranged to increase as Metabolic Syndrome worsened, and weighted approximately equally in the prediction of Metabolic Syndrome progression and risk for CV events.
The FS index was then applied to well-studied patient populations using a neural net model.
[formula] Where FBG is Fasting Blood Glucose in mg/dl and normal value is 100 mg/dl TG is Triglycerides in mg/dl normal value is <150 HBA1c is hemoglobin A1c in %, normal value is <6% BMI is body mass index as kg/m2 where a normal value is 20 and obese begins above 25 AST is Aspartate Transferase also called SGOT in IU/liter and a normal value is 5-50 FB insulin is fasting Blood insulin concentration in nmol/liter, a normal value is 4.0

[1] = initiation of insulin in T2D patients; duration and intensity dependent; cited from earlier work
[2] = system: hepatic gluconeogenesis (GNG); design: endogenous glucose output: unit not given here; conditions: Gastaldelli, euglycemic hyperinsulinemic clamp, plasma insulin 113±6 μU/ml, T2D, cited from earlier work

Molecule | FS index response to treatment (metabolic syndrome; normal 20-50, 61 T2D on metformin, 100 RYGB, 18 Brake, 33 exenatide, 12 sitagliptin patients) | other parameters of metabolic syndrome (BMI/weight, HBSD, lipids, NAFLD, blood pressure, insulin) (metabolic syndrome; same patient populations as FS index) | weight gain [1] | plasma C5:^2H2O ratio ([2]; basal 0.60±0.02) | endogenous glucose output ([2]; basal 15.2±0.4)
N[C@@H](CC(=O)N1CCn2c(nnc2C(F)(F)F)C1)Cc1cc(F)c(F)cc1F [Sitagliptin] | beneficial response to the diabetes component of metabolic syndrome | weight slowly increases or stays the same, lipid abnormalities do not resolve and NAFLD abnormalities do not resolve | – | – | –
insulin | – | – | 5-10% | 0.25±0.02 | 7.1±0.9
